The values below are quoted from earlier work in patent publication US20100209350A1, “Biomarkers for Adipose Tissue Activity” (priority 2008, published 2010).

Structures are written as SMILES.

The data set has as its system adiponectin. The conditions noted are these: patient responding to the therapy; sample such as blood; general statement, no study described.

For `CN(C)C(=N)N=C(N)N` [metformin], the “increase of adiponectin level from a reference value” is “about 20%”.
